Measurements: ChEMBL document CHEMBL3867478, “ProTides of BVdU as potential anticancer agents upon efficient intracellular delivery of their activated metabolites” (Bioorg Med Chem Lett, 2016)

Test: Drug level in pH 7.6 trizma buffer treated with 5 mg (E)-5-(2-bromovinyl)-2'-deoxyuridine-5'-(1-naphthyl(methoxy-L-tryptophanyl)-phosphate assessed as carboxypeptidase Y (unknown origin)-mediated compound formation measured every 7 mins for 14 hrs by [31P]-NMR spectroscopic analysis
Format: ADME
Conditions: pH 7.6, 14 h

SMILES	Drug metabolism
O=C(O)C(Cc1c[nH]c2ccccc12)NP(=O)(OC[C@H]1O[C@@H](n2cc(/C=C/Br)c(=O)[nH]c2=O)C[C@@H]1O)Oc1cccc2ccccc12 (stereo partly drawn)	Metabolite_Detected
O=C(O)C(Cc1c[nH]c2ccccc12)NP(=O)(O)OC[C@H]1O[C@@H](n2cc(/C=C/Br)c(=O)[nH]c2=O)C[C@@H]1O (stereo partly drawn)	Metabolite_Detected
O=C1OP(=O)(OC[C@H]2O[C@@H](n3cc(/C=C/Br)c(=O)[nH]c3=O)C[C@@H]2O)NC1Cc1c[nH]c2ccccc12 (stereo partly drawn)	Metabolite_Detected
